How the values were obtained:
S. aureus DSM 20231 = test: Bliss interaction score (quartile over a dose matrix) (fitness difference); higher = more antagonism (negative = synergy)
In short: (§1)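 Fitness was OD595 at entry into stationary phase divided by the plate's robust no-drug mean and capped at 1; single-drug fitness was inferred from combination data. The Bliss score is observed minus expected (product) fitness, summarised by quartiles over technical, biological and donor/recipient replicates.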

B. subtilis 168 = test: as above
In short: as §1

S. aureus Newman = test: as above
In short: as §1

S. pneumoniae D39V [1] = test: as above
In short: as §1

S. pneumoniae D39V [2] = test: fitness (endpoint OD595 vs no drug) (fraction); higher = more growth
In short: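 At 37 °C, bacteria in TSB, LB Lennox or CY were grown in 384-well plates from a starting OD595 of 0.01. OD595 was measured every 30 min for 14 h, with the first reading used as background. Fitness is the optical density at the switch to stationary phase as a fraction of the robust mean of no-drug control wells, capped at 1.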
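Throughout, for Bliss interaction score (quartile over a dose matrix): first quartile when negative (synergy) and third quartile when positive (antagonism).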

COc1c(N2C[C@@H]3CCCN[C@@H]3C2)c(F)cc2c(=O)c(C(=O)O)cn(C3CC3)c12 [Moxifloxacin] + CO[C@H]1/C=C/O[C@@]2(C)Oc3c(C)c(O)c4c(O)c(c(/C=N/N5CCN(C)CC5)c(O)c4c3C2=O)NC(=O)/C(C)=C\C=C\[C@H](C)[C@H](O)[C@@H](C)[C@@H](O)[C@@H](C)[C@H](OC(C)=O)[C@@H]1C [Rifampicin]
Settings | Bliss interaction score
B. subtilis 168 | -0.0221
S. aureus DSM 20231 | -0.0701
S. aureus Newman | -0.0223
S. pneumoniae D39V [1] | -0.0845

fitness, S. pneumoniae D39V [2], one replicate
Settings | first compound 0.0037 µg/mL | first compound 0.0075 µg/mL | first compound 0.015 µg/mL
partner 0.025 µg/mL | 0.868 | 0.822 | 0.779
partner 0.2 µg/mL | 0 | 0 | 0

fitness, S. pneumoniae D39V [2]
Settings | first compound 0.0037 µg/mL | first compound 0.005 µg/mL | first compound 0.0075 µg/mL | first compound 0.01 µg/mL | first compound 0.015 µg/mL | first compound 0.02 µg/mL
partner 0.05 µg/mL | 0.776 | 0.919 | 0.725 | 0.908 | 0.713 | 0.908
partner 0.1 µg/mL | 0.317 | – | 0.295 | – | 0.354 | –
partner 0.2 µg/mL | – | 0.168 | – | 0.196 | – | 0.198

COc1c(N2C[C@@H]3CCCN[C@@H]3C2)c(F)cc2c(=O)c(C(=O)O)cn(C3CC3)c12 [Moxifloxacin] + O=C1CN(/N=C/c2ccc([N+](=O)[O-])o2)C(=O)N1 [Nitrofurantoin]
Settings | Bliss interaction score
B. subtilis 168 | 0.0132
S. aureus DSM 20231 | 0.0448
S. aureus Newman | -0.0496
S. pneumoniae D39V [1] | 0.0837

fitness, S. pneumoniae D39V [2]
Settings | first compound 0.0037 µg/mL | first compound 0.005 µg/mL | first compound 0.0075 µg/mL | first compound 0.01 µg/mL | first compound 0.015 µg/mL | first compound 0.02 µg/mL
partner 1.285 µg/mL | 0.969 | – | 0.914 | – | 0.884 | –
partner 2 µg/mL | – | 0.972 | – | 0.961 | – | 0.893
partner 2.57 µg/mL | 0.906 | – | 0.903 | – | 0.912 | –
partner 4 µg/mL | – | 0.949 | – | 0.949 | – | 0.879
partner 8 µg/mL | – | 0.836 | – | 0.872 | – | 0.81

S. pneumoniae D39V [2], partner 5.14 µg/mL, one replicate
Settings | fitness
first compound 0.0037 µg/mL | 0.797
first compound 0.0075 µg/mL | 0.748
first compound 0.015 µg/mL | 0.78

O=C1CN(/N=C/c2ccc([N+](=O)[O-])o2)C(=O)N1 [Nitrofurantoin] + CC1=C\[C@@H](O)CC(=O)Cc2nc(co2)C(=O)N2CCC=C2C(=O)O[C@H](C(C)C)[C@H](C)/C=C/C(=O)NC\C=C\1 [Virginiamycin M1]
Settings | Bliss interaction score
B. subtilis 168 | 0.129
S. aureus DSM 20231 | 0.0559
S. aureus Newman | 0.0574
S. pneumoniae D39V [1] | 0.084

fitness, S. pneumoniae D39V [2]
Settings | first compound 1.285 µg/mL | first compound 2 µg/mL | first compound 2.57 µg/mL | first compound 4 µg/mL | first compound 8 µg/mL
partner 0.5 µg/mL | 0.99 | – | 0.955 | – | –
partner 1 µg/mL | 0.98 | – | 0.962 | – | –
partner 2 µg/mL | 0.972 | 0.867 | 0.949 | 0.879 | 0.872

fitness, S. pneumoniae D39V [2], one replicate
Settings | partner 0.15 µg/mL | partner 0.3 µg/mL | partner 0.5 µg/mL | partner 1 µg/mL | partner 2 µg/mL
first compound 2 µg/mL | 0.911 | 0.875 | 0.99 | 0.988 | –
first compound 4 µg/mL | 0.914 | 0.886 | 0.967 | 0.957 | –
first compound 5.14 µg/mL | – | – | 0.917 | 0.972 | ≥ 1
first compound 8 µg/mL | 0.888 | 0.897 | 0.918 | 0.855 | –

— the supplement of paper PMC10627819
